This note sets out measurements from ChEMBL document CHEMBL3045059, “Efficacy of ketoenols on insecticide resistant field populations of two-spotted spider mite Tetranychus urticae and sweet potato whitefly Bemisia tabaci from Greece” (2012).

Common to all, as to type: functional
The test system of assay [1] is Tetranychus urticae. Description: Acaricidal activity against adult Tetranychus urticae (two-spotted spider mite) field population TU6 in bean leaves assessed as mortality applied at 1 bar pressure measured after 24 hr. To be noted: TU6, 24 h.
Assay [2] deals with Tetranychus urticae. Description: Acaricidal activity against adult Tetranychus urticae (two-spotted spider mite) laboratory strain GSS in bean leaves assessed as mortality applied at 1 bar pressure measured after 24 hr.
Assay [3] deals with Tetranychus urticae. Description: Acaricidal activity against adult Tetranychus urticae (two-spotted spider mite) laboratory strain SAMB in bean leaves assessed as mortality applied at 1 bar pressure measured after 24 hr.
The test system of assay [4] is Tetranychus urticae. Description: Resistance ratio, ratio of LC50 for adult Tetranychus urticae (two-spotted spider mite) greenhouse population TU7 to LC50 for adult Tetranychus urticae laboratory strain SAMB measured after 24 hr.
Assay [5] concerns Tetranychus urticae. Description: Resistance ratio, ratio of LC50 for adult Tetranychus urticae (two-spotted spider mite) greenhouse population TU11 to LC50 for adult Tetranychus urticae laboratory strain SAMB measured after 24 hr.
In assay [6] the test system is Tetranychus urticae. Description: Resistance ratio, ratio of LC50 for adult Tetranychus urticae (two-spotted spider mite) greenhouse population TU9 to LC50 for adult Tetranychus urticae laboratory strain SAMB measured after 24 hr.
The test system of assay [7] is Tetranychus urticae. The experiment in a line: Resistance ratio, ratio of LC50 for adult Tetranychus urticae (two-spotted spider mite) field population TU4 to LC50 for adult Tetranychus urticae laboratory strain SAMB measured after 24 hr.
In assay [8] the test system is Tetranychus urticae. Description: Resistance ratio, ratio of LC50 for adult Tetranychus urticae (two-spotted spider mite) greenhouse population TU3 to LC50 for adult Tetranychus urticae laboratory strain SAMB measured after 24 hr.
Assay [9] has as its system Tetranychus urticae. Description: Resistance ratio, ratio of LC50 for adult Tetranychus urticae (two-spotted spider mite) field population TU12 to LC50 for adult Tetranychus urticae laboratory strain SAMB measured after 24 hr.
In assay [10] the test system is Tetranychus urticae. Description: Resistance ratio, ratio of LC50 for adult Tetranychus urticae (two-spotted spider mite) greenhouse population TU5 to LC50 for adult Tetranychus urticae laboratory strain SAMB measured after 24 hr.
For assay [11], the system named is Tetranychus urticae. Description: Resistance ratio, ratio of LC50 for adult Tetranychus urticae (two-spotted spider mite) field population TU2 to LC50 for adult Tetranychus urticae laboratory strain SAMB measured after 24 hr.
Assay [12] relates to Tetranychus urticae. The experiment in a line: Resistance ratio, ratio of LC50 for adult Tetranychus urticae (two-spotted spider mite) greenhouse population TU1 to LC50 for adult Tetranychus urticae laboratory strain SAMB measured after 24 hr.
Assay [13] deals with Tetranychus urticae. Description: Resistance ratio, ratio of LC50 for adult Tetranychus urticae (two-spotted spider mite) field population TU6 to LC50 for adult Tetranychus urticae laboratory strain SAMB measured after 24 hr.
Assay [14] concerns Tetranychus urticae. The experiment in a line: Resistance ratio, ratio of LC50 for adult Tetranychus urticae (two-spotted spider mite) laboratory strain GSS to LC50 for adult Tetranychus urticae laboratory strain SAMB measured after 24 hr.
Assay [15] has as its system Tetranychus urticae. Description: Acaricidal activity against adult Tetranychus urticae (two-spotted spider mite) greenhouse population TU7 in bean leaves assessed as mortality applied at 1 bar pressure measured after 24 hr. The note with it: TU7, 24 h.
Assay [16] relates to Tetranychus urticae. Description: Acaricidal activity against adult Tetranychus urticae (two-spotted spider mite) greenhouse population TU11 in bean leaves assessed as mortality applied at 1 bar pressure measured after 24 hr. The note with it: TU11, 24 h.
Assay [17] concerns Tetranychus urticae. Description: Acaricidal activity against adult Tetranychus urticae (two-spotted spider mite) greenhouse population TU9 in bean leaves assessed as mortality applied at 1 bar pressure measured after 24 hr. The note with it: TU9, 24 h.
Assay [18] has as its system Tetranychus urticae. Description: Acaricidal activity against adult Tetranychus urticae (two-spotted spider mite) field population TU4 in bean leaves assessed as mortality applied at 1 bar pressure measured after 24 hr. The note with it: TU4, 24 h.
Assay [19] has as its system Tetranychus urticae. The experiment in a line: Acaricidal activity against adult Tetranychus urticae (two-spotted spider mite) greenhouse population TU3 in bean leaves assessed as mortality applied at 1 bar pressure measured after 24 hr. The note with it: TU3, 24 h.
The test system of assay [20] is Tetranychus urticae. The experiment in a line: Acaricidal activity against adult Tetranychus urticae (two-spotted spider mite) field population TU12 in bean leaves assessed as mortality applied at 1 bar pressure measured after 24 hr. The note with it: TU12, 24 h.
For assay [21], the system named is Tetranychus urticae. Description: Acaricidal activity against adult Tetranychus urticae (two-spotted spider mite) greenhouse population TU5 in bean leaves assessed as mortality applied at 1 bar pressure measured after 24 hr. The note with it: TU5, 24 h.
In assay [22] the test system is Tetranychus urticae. Description: Acaricidal activity against adult Tetranychus urticae (two-spotted spider mite) field population TU2 in bean leaves assessed as mortality applied at 1 bar pressure measured after 24 hr. The note with it: TU2, 24 h.
Assay [23] deals with Tetranychus urticae. The experiment in a line: Acaricidal activity against adult Tetranychus urticae (two-spotted spider mite) greenhouse population TU1 in bean leaves assessed as mortality applied at 1 bar pressure measured after 24 hr. To be noted: TU1, 24 h.
Assay [24] deals with Tetranychus urticae. The experiment in a line: Acaricidal activity against adult Tetranychus urticae (two-spotted spider mite) greenhouse population TU7 in bean leaves assessed as mortality applied at 1 bar pressure measured after 48 hr. The note with it: TU7, 48 h.
Assay [25] relates to Tetranychus urticae. The experiment in a line: Acaricidal activity against adult Tetranychus urticae (two-spotted spider mite) greenhouse population TU11 in bean leaves assessed as mortality applied at 1 bar pressure measured after 48 hr. The note with it: TU11, 48 h.
Assay [26] deals with Tetranychus urticae. The experiment in a line: Acaricidal activity against adult Tetranychus urticae (two-spotted spider mite) greenhouse population TU9 in bean leaves assessed as mortality applied at 1 bar pressure measured after 48 hr. The note with it: TU9, 48 h.
In assay [27] the test system is Tetranychus urticae. Description: Acaricidal activity against adult Tetranychus urticae (two-spotted spider mite) field population TU4 in bean leaves assessed as mortality applied at 1 bar pressure measured after 48 hr. The note with it: TU4, 48 h.
For assay [28], the system named is Tetranychus urticae. The experiment in a line: Acaricidal activity against adult Tetranychus urticae (two-spotted spider mite) greenhouse population TU3 in bean leaves assessed as mortality applied at 1 bar pressure measured after 48 hr. To be noted: TU3, 48 h.
The test system of assay [29] is Tetranychus urticae. Description: Acaricidal activity against adult Tetranychus urticae (two-spotted spider mite) field population TU12 in bean leaves assessed as mortality applied at 1 bar pressure measured after 48 hr. To be noted: TU12, 48 h.
In assay [30] the test system is Tetranychus urticae. Description: Acaricidal activity against adult Tetranychus urticae (two-spotted spider mite) greenhouse population TU5 in bean leaves assessed as mortality applied at 1 bar pressure measured after 48 hr. The note with it: TU5, 48 h.
The test system of assay [31] is Tetranychus urticae. Description: Acaricidal activity against adult Tetranychus urticae (two-spotted spider mite) field population TU2 in bean leaves assessed as mortality applied at 1 bar pressure measured after 48 hr. The note with it: TU2, 48 h.
The subject of assay [32] is Tetranychus urticae. Description: Acaricidal activity against adult Tetranychus urticae (two-spotted spider mite) field population TU6 in bean leaves assessed as mortality applied at 1 bar pressure measured after 48 hr. The note with it: TU6, 48 h.
Assay [33] relates to Tetranychus urticae. Description: Acaricidal activity against adult Tetranychus urticae (two-spotted spider mite) greenhouse population TU1 in bean leaves assessed as mortality applied at 1 bar pressure measured after 48 hr. To be noted: TU1, 48 h.
Assay [34] concerns Tetranychus urticae. Description: Acaricidal activity against adult Tetranychus urticae (two-spotted spider mite) laboratory strain GSS in bean leaves assessed as mortality applied at 1 bar pressure measured after 48 hr.
The subject of assay [35] is Tetranychus urticae. Description: Acaricidal activity against adult Tetranychus urticae (two-spotted spider mite) laboratory strain SAMB in bean leaves assessed as mortality applied at 1 bar pressure measured after 48 hr.
Assay [36] deals with Tetranychus urticae. The experiment in a line: Resistance ratio, ratio of LC50 for adult Tetranychus urticae (two-spotted spider mite) greenhouse population TU7 to LC50 for adult Tetranychus urticae laboratory strain SAMB measured after 48 hr.
Assay [37] has as its system Tetranychus urticae. Description: Resistance ratio, ratio of LC50 for adult Tetranychus urticae (two-spotted spider mite) greenhouse population TU11 to LC50 for adult Tetranychus urticae laboratory strain SAMB measured after 48 hr.
Assay [38] concerns Tetranychus urticae. Description: Resistance ratio, ratio of LC50 for adult Tetranychus urticae (two-spotted spider mite) greenhouse population TU9 to LC50 for adult Tetranychus urticae laboratory strain SAMB measured after 48 hr.
Assay [39] relates to Tetranychus urticae. Description: Resistance ratio, ratio of LC50 for adult Tetranychus urticae (two-spotted spider mite) field population TU4 to LC50 for adult Tetranychus urticae laboratory strain SAMB measured after 48 hr.
Assay [40] concerns Tetranychus urticae. The experiment in a line: Resistance ratio, ratio of LC50 for adult Tetranychus urticae (two-spotted spider mite) greenhouse population TU3 to LC50 for adult Tetranychus urticae laboratory strain SAMB measured after 48 hr.
Assay [41] concerns Tetranychus urticae. Description: Resistance ratio, ratio of LC50 for adult Tetranychus urticae (two-spotted spider mite) field population TU12 to LC50 for adult Tetranychus urticae laboratory strain SAMB measured after 48 hr.
Assay [42] relates to Tetranychus urticae. The experiment in a line: Resistance ratio, ratio of LC50 for adult Tetranychus urticae (two-spotted spider mite) greenhouse population TU5 to LC50 for adult Tetranychus urticae laboratory strain SAMB measured after 48 hr.
Assay [43] has as its system Tetranychus urticae. The experiment in a line: Resistance ratio, ratio of LC50 for adult Tetranychus urticae (two-spotted spider mite) field population TU2 to LC50 for adult Tetranychus urticae laboratory strain SAMB measured after 48 hr.
Assay [44] relates to Tetranychus urticae. Description: Resistance ratio, ratio of LC50 for adult Tetranychus urticae (two-spotted spider mite) greenhouse population TU1 to LC50 for adult Tetranychus urticae laboratory strain SAMB measured after 48 hr.
Assay [45] has as its system Tetranychus urticae. The experiment in a line: Resistance ratio, ratio of LC50 for adult Tetranychus urticae (two-spotted spider mite) field population TU6 to LC50 for adult Tetranychus urticae laboratory strain SAMB measured after 48 hr.
In assay [46] the test system is Tetranychus urticae. Description: Resistance ratio, ratio of LC50 for adult Tetranychus urticae (two-spotted spider mite) laboratory strain GSS to LC50 for adult Tetranychus urticae laboratory strain SAMB measured after 48 hr.

Converted amounts (≈) assume the structure as drawn.

On to `CC(C)(C)c1ccc(CCOc2ncnc3ccccc23)cc1` [FENAZAQUIN], for which the LC50 with Tetranychus urticae [1] was 29 µg/mL (≈ 94.6 µM); with Tetranychus urticae [2] it was 17 µg/mL (≈ 55.5 µM); in the assay on Tetranychus urticae [3] it was 13 µg/mL (≈ 42.4 µM); with Tetranychus urticae [15], 447 µg/mL (≈ 1460 µM); with Tetranychus urticae [16], 562 µg/mL (≈ 1830 µM); in the assay with Tetranychus urticae [17] it was 316 µg/mL (≈ 1030 µM). Besides, the 50% lethal concentration (LC50) in the assay with Tetranychus urticae [18] was determined as 55 µg/mL (≈ 179 µM); in the assay on Tetranychus urticae [19], 77 µg/mL (≈ 251 µM); in the assay on Tetranychus urticae [20], 215 µg/mL (≈ 702 µM); in the assay with Tetranychus urticae [21], 49 µg/mL (≈ 160 µM); in the assay on Tetranychus urticae [22], 97 µg/mL (≈ 317 µM); with Tetranychus urticae [23], 179 µg/mL (≈ 584 µM). Besides, the RatioLC50 turned out to be 33 in the assay with Tetranychus urticae [4]; 42 with Tetranychus urticae [5]; 23 with Tetranychus urticae [6]; 4.1 with Tetranychus urticae [7]; 5.7 in the assay with Tetranychus urticae [8]; 15 with Tetranychus urticae [9]. The RatioLC50 came out at 3.7 with Tetranychus urticae [10]; 7.3 with Tetranychus urticae [11]; 13 with Tetranychus urticae [12]; 2.2 in the assay with Tetranychus urticae [13]; 1.3 in the assay on Tetranychus urticae [14].

Regarding `CCN(CC)c1nc(C)cc(OP(=S)(OC)OC)n1` [PIRIMIPHOS METHYL], the LC50 with Tetranychus urticae [24] turned out to be 1330 µg/mL (≈ 4360 µM); with Tetranychus urticae [25] it was 417 µg/mL (≈ 1370 µM); in the assay on Tetranychus urticae [26], 248 µg/mL (≈ 812 µM); in the assay on Tetranychus urticae [27] it was 98 µg/mL (≈ 321 µM); with Tetranychus urticae [28], 130 µg/mL (≈ 426 µM); with Tetranychus urticae [29], 77 µg/mL (≈ 252 µM). The LC50 in the assay with Tetranychus urticae [30] was determined as 204 µg/mL (≈ 668 µM); with Tetranychus urticae [31], 225 µg/mL (≈ 737 µM); in the assay with Tetranychus urticae [32], 158 µg/mL (≈ 517 µM); in the assay on Tetranychus urticae [33] it was 248 µg/mL (≈ 812 µM); with Tetranychus urticae [34], 332 µg/mL (≈ 1090 µM); in the assay with Tetranychus urticae [35], 18 µg/mL (≈ 59 µM). Also, the RatioLC50 worked out at 74 in the assay on Tetranychus urticae [36]; 23 in the assay with Tetranychus urticae [37]; 14 with Tetranychus urticae [38]; 5.5 in the assay with Tetranychus urticae [39]; 7.3 in the assay with Tetranychus urticae [40]; 4.3 in the assay on Tetranychus urticae [41]. The RatioLC50 with Tetranychus urticae [42] amounted to 11; with Tetranychus urticae [43] it was 12; in the assay on Tetranychus urticae [44], 14; in the assay on Tetranychus urticae [45] it was 8.9; with Tetranychus urticae [46] it was 19.
